Results on 17 molecules are retold here after patent publication US9642831B2, “Substituted chromanes and method of use” (AbbVie S.á.r.l., priority 2014, dated 2017).

Some results are limits rather than exact numbers.

Broadly, the EC50 is the concentration that produces a half-maximal response. Higher therefore signals lower potency in that assay. The term Emax denotes the greatest response seen or fitted, relative to the assay's reference.

This experiment has as its target F508delCFTR (Homo sapiens, UniProt P13569, DEL508-508). The experiment in a line: Cell Surface Expression-Horse Radish Peroxidase (CSE-HRP) assay. As to conditions: CFBE4lo-F508delCFTR-HRP cells; for EC50: 18-24 hours at 33° C., 8-point curve, highest concentration 20 μM, luminescence readout; for Emax: maximum % activity at any tested concentration, normalized to on-plate positive control (3 μM Example 1). Further details: expressed in transfected cells; host or cells: CFBE41o- human lung derived epithelial cell line, doxycycline-inducible. The format is cell-based. The text has this:
Cell Surface Expression-Horse Radish Peroxidase (CSE-HRP) Assay:
A cellular assay for measuring the F508delCFTR cell surface expression after correction with test compounds was developed in human lung derived epithelial cell line (CFBE4lo-) (Veit G et al, (2012) Mol Biol Cell. 23(21): 4188-4202). This was achieved by expressing the F508delCFTR mutation along with a horseradish peroxidase (HRP) in the fourth exofacial loop and then measuring the HRP activity using luminescence readout from these cells, CFBE4lo-F508delCFTR-HRP, that were incubated overnight with the test corrector compounds. Briefly, for this primary assay, the CFBE4lo-F508delCFTR-HRP cells were plated in 384-well plates (Greiner Bio-one; Cat 781080) at 4,000 cells/well along with 0.5 μg/mL doxycycline to induce the F508delCFTR-HRP expression and further incubated at 37° C., 5% CO2 for 72 hours. The test compounds were then added at the required concentrations and further incubated for 18-24 hours at 33° C. The highest concentration tested was 20 μM with an 8-point concentration response curve using a 3-fold dilution. Three replicate plates were run to determine one EC50. All plates contained negative controls (dimethyl sulfoxide, DMSO) and positive controls (3 μM of 3-[(2R,4R)-4-({[1-(2,2-difluoro-1,3-benzodioxol-5-yl)cyclopropyl]carbonyl}amino)-7-methoxy-3,4-dihydro-2H-chromen-2-yl]benzoic acid) as well as on-plate concentration response of the positive control. Post incubation, the plates were washed 5× times with Dulbecco's phosphate buffered saline (DPBS), followed by the addition of the HRP substrate, luminol (50 μL), and measuring the HRP activity using luminescence readout on EnVision® Multilabel Plate Reader (Perkin Elmer; product number 2104-0010). The raw counts from the experiment are analyzed using Accelrys® Assay Explorer v3.3.
Z′ greater than 0.5 was used as passing quality control criteria for the plates.
The Z′ is defined as: 1−[3*SDPositive Control+3*SDNegative Control/Absolute(MeanPositive Control−MeanNegative Control)] wherein “SD” is standard deviation.
The % activity measured at each of the 8 test concentrations of the test compound was normalized to the on-plate positive control using the following formula: % activity=[(test compound response−DMSO response)/(positive control response−DMSO response)]*100
The maximum % activity achieved for the test compound at any tested concentration is presented in Table 1 along with the EC50 calculated using the following general sigmoidal curve with variable Hill slope equation (described as Model 42 in the Accelrys® Assay Explorer v3.3 software): y=(a−d)/(1+(x/c)^b)+d
General sigmoidal curve with concentration, response, top, bottom, EC50 and Hill slope.
This model describes a sigmoidal curve with an adjustable baseline, a. The equation can be used to fit curves where response is either increasing or decreasing with respect to the independent variable, “x”.
“x” is a concentration of drug under test.
“a” is the maximum response, and “d” is the minimum response
“c” is the inflection point (EC50) for the curve. That is, “y” is halfway between the lower and upper asymptotes when x=c.
“b” is the slope-factor or Hill coefficient. The sign of b is positive when the response increases with increasing dose and is negative when the response decreases with increasing dose (inhibition).

F508delCFTR, sequence (P13569 with tags, fused parts or gaps DEL508-508): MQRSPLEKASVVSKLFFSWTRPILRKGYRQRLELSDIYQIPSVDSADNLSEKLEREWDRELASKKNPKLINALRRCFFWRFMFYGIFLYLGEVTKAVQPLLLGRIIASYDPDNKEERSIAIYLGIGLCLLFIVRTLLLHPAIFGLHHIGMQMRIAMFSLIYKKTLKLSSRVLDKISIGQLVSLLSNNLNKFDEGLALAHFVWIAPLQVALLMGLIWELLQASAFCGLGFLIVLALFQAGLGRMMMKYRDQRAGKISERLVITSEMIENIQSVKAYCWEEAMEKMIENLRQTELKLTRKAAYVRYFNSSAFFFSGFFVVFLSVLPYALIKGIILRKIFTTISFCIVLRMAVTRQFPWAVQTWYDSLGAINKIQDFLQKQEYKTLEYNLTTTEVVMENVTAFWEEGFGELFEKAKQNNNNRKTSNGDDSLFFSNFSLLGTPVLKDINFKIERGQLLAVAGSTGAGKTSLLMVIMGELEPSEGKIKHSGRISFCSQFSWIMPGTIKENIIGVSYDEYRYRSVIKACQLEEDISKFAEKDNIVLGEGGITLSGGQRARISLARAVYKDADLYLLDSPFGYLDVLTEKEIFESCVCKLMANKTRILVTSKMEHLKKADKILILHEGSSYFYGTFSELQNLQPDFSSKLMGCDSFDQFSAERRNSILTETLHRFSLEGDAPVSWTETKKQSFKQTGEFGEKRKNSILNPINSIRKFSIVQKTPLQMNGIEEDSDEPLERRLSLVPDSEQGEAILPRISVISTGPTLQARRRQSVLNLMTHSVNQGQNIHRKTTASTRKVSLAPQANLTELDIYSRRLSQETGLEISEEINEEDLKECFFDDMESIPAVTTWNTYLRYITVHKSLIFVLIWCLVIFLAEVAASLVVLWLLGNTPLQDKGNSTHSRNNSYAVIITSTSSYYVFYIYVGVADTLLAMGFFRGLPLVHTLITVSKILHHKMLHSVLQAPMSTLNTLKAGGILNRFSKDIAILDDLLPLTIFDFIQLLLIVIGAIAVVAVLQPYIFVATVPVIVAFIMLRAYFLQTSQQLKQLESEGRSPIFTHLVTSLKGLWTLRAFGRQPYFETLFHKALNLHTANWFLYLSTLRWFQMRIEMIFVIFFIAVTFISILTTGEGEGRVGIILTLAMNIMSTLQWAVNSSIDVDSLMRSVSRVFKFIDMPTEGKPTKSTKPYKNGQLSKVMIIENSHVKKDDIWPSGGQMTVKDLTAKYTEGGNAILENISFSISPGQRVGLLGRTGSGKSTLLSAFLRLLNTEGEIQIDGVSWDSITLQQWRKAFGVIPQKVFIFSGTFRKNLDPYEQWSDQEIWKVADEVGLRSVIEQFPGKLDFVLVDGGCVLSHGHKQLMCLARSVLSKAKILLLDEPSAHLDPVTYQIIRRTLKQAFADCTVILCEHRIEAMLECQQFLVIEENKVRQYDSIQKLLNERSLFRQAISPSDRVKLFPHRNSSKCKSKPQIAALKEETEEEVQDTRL

`CCOC(=O)[C@H]1C[C@H](NC(=O)C2(c3ccc4c(c3)OC(F)(F)O4)CC2)c2ccc(OC)cc2O1` (racemic) [Example 130, Ethyl rac-(2R,4S)-4-({[1-(2,2-difluoro-1,3-benzodioxol-5-yl)cyclopropyl]carbonyl}amino)-7-methoxy-3,4-dihydro-2H-chromene-2-carboxylate]: the EC50 amounted to 2560 nM and the Emax is 79%.

In turn, `COC(=O)[C@H]1C[C@H](NC(=O)C2(c3ccc4c(c3)OC(F)(F)O4)CC2)c2ccc(OC)cc2O1` (racemic) [Example 131, methyl rac-(2R,4S)-4-({[1-(2,2-difluoro-1,3-benzodioxol-5-yl)cyclopropyl]carbonyl}amino)-7-methoxy-3,4-dihydro-2H-chromene-2-carboxylate] came in with an EC50 of 3600 nM and an Emax of 70%.

In the case of `COc1ccc2c(c1)O[C@@H](C(=O)O)C[C@@H]2NC(=O)C1(c2ccc3c(c2)OC(F)(F)O3)CC1` (racemic) [Example 134, rac-(2R,4S)-4-({[1-(2,2-difluoro-1,3-benzodioxol-5-yl)cyclopropyl]carbonyl}amino)-7-methoxy-3,4-dihydro-2H-chromene-2-carboxylic acid], the EC50 is over 20000 nM and the Emax was determined as 4%.

On to `COC(=O)C12CC([C@H]3C[C@@H](NC(=O)C4(c5ccc6c(c5)OC(F)(F)O6)CC4)c4ccc(OC)cc4O3)(C1)C2` (racemic) [Example 147, methyl rac-3-[(2R,4R)-4-({[1-(2,2-difluoro-1,3-benzodioxol-5-yl)cyclopropyl]carbonyl}amino)-7-methoxy-3,4-dihydro-2H-chromen-2-yl]bicyclo[1.1.1]pentane-1-carboxylate], for which the EC50 amounted to 2040 nM and the Emax amounted to 78%.

`CCOC(=O)c1ccc([C@H]2C[C@H](NC(=O)C3(c4ccc5c(c4)OC(F)(F)O5)CC3)c3ccccc3O2)nc1` (racemic) [Example 149, ethyl rac-6-[(2R,4S)-4-({[1-(2,2-difluoro-1,3-benzodioxol-5-yl)cyclopropyl]carbonyl}amino)-3,4-dihydro-2H-chromen-2-yl]pyridine-3-carboxylate]: the 50% effective concentration (EC50) amounted to 1530 nM and the Emax was found to be 85%.

Molecule `CCOC(=O)c1ccc([C@H]2C[C@@H](NC(=O)C3(c4ccc5c(c4)OC(F)(F)O5)CC3)c3ccccc3O2)nc1` (racemic) [Example 150, ethyl rac-6-[(2R,4R)-4-({[1-(2,2-difluoro-1,3-benzodioxol-5-yl)cyclopropyl]carbonyl}amino)-3,4-dihydro-2H-chromen-2-yl]pyridine-3-carboxylate] showed an EC50 of 420 nM and an Emax of 106%.

`O=C(O)c1ccc([C@H]2C[C@H](NC(=O)C3(c4ccc5c(c4)OC(F)(F)O5)CC3)c3ccccc3O2)nc1` (racemic) [Example 153, rac-6-[(2R,4S)-4-({[1-(2,2-difluoro-1,3-benzodioxol-5-yl)cyclopropyl]carbonyl}amino)-3,4-dihydro-2H-chromen-2-yl]pyridine-3-carboxylic acid]: it took 1900 nM to reach a half-maximal effect (EC50) and the Emax came out at 84%.

`O=C(O)c1ccc([C@H]2C[C@@H](NC(=O)C3(c4ccc5c(c4)OC(F)(F)O5)CC3)c3ccccc3O2)nc1` (racemic) [Example 154, rac-6-[(2R,4R)-4-({[1-(2,2-difluoro-1,3-benzodioxol-5-yl)cyclopropyl]carbonyl}amino)-3,4-dihydro-2H-chromen-2-yl]pyridine-3-carboxylic acid] displayed an EC50 of 670 nM and an Emax of 106%.

`CCOC(=O)[C@H]1C[C@@H](NC(=O)C2(c3ccc4c(c3)OC(F)(F)O4)CC2)c2ccc(OC)cc2O1` (racemic) [Example 163, ethyl rac-(2R,4R)-4-({[1-(2,2-difluoro-1,3-benzodioxol-5-yl)cyclopropyl]carbonyl}amino)-7-methoxy-3,4-dihydro-2H-chromene-2-carboxylate]: the response was half-maximal at 3590 nM (EC50) and the Emax came to 42%.

Take `COc1ccc2c(c1)O[C@@H](C(=O)O)C[C@H]2NC(=O)C1(c2ccc3c(c2)OC(F)(F)O3)CC1` (racemic) [Example 164, rac-(2R,4R)-4-({[1-(2,2-difluoro-1,3-benzodioxol-5-yl)cyclopropyl]carbonyl}amino)-7-methoxy-3,4-dihydro-2H-chromene-2-carboxylic acid]: the EC50 is over 20000 nM and the Emax was found to be 2%.

In the case of `CCCN(CCO)C(=O)[C@H]1C[C@@H](NC(=O)C2(c3ccc4c(c3)OC(F)(F)O4)CC2)c2ccc(OC)cc2O1` (racemic) [Example 166, rac-(2R,4R)-4-({[1-(2,2-difluoro-1,3-benzodioxol-5-yl)cyclopropyl]carbonyl}amino)-N-(2-hydroxyethyl)-7-methoxy-N-propyl-3,4-dihydro-2H-chromene-2-carboxamide], a half-maximal response (EC50) required 2000 nM and the Emax is 65%.

In the case of `COc1ccc2c(c1)O[C@@H](C(=O)N(CCO)Cc1ccccc1)C[C@H]2NC(=O)C1(c2ccc3c(c2)OC(F)(F)O3)CC1` (racemic) [Example 167, rac-(2R,4R)—N-benzyl-4-({[1-(2,2-difluoro-1,3-benzodioxol-5-yl)cyclopropyl]carbonyl}amino)-N-(2-hydroxyethyl)-7-methoxy-3,4-dihydro-2H-chromene-2-carboxamide], the EC50 turned out to be 1080 nM and the Emax is 66%.

Take `COc1ccc2c(c1)O[C@@H](C(=O)N(C)CC(O)c1ccccc1)C[C@H]2NC(=O)C1(c2ccc3c(c2)OC(F)(F)O3)CC1` (mixture of isomers) [Example 168, rac-(2R,4R)-4-({[1-(2,2-difluoro-1,3-benzodioxol-5-yl)cyclopropyl]carbonyl}amino)-N-(2-hydroxy-2-phenylethyl)-7-methoxy-N-methyl-3,4-dihydro-2H-chromene-2-carboxamide]: the midpoint of the response, the EC50, lay at 1160 nM and the maximum response (Emax) stood at 67%.

`COc1ccc2c(c1)O[C@@H](C(=O)N1CCN(CCO)CC1)C[C@H]2NC(=O)C1(c2ccc3c(c2)OC(F)(F)O3)CC1` (racemic) [Example 169, rac-1-(2,2-difluoro-1,3-benzodioxol-5-yl)-N-[(2R,4R)-2-{[4-(2-hydroxyethyl)piperazin-1-yl]carbonyl}-7-methoxy-3,4-dihydro-2H-chromen-4-yl]cyclopropanecarboxamide] showed an EC50 of 4900 nM and a maximal effect (Emax) of 38%.

`COc1ccc2c(c1)O[C@@H](C(=O)NC(C)(C)CO)C[C@H]2NC(=O)C1(c2ccc3c(c2)OC(F)(F)O3)CC1` (racemic) [Example 170, rac-(2R,4R)-4-({[1-(2,2-difluoro-1,3-benzodioxol-5-yl)cyclopropyl]carbonyl}amino)-N-(1-hydroxy-2-methylpropan-2-yl)-7-methoxy-3,4-dihydro-2H-chromene-2-carboxamide] yielded an EC50 of 1550 nM and an Emax of 65%.

Molecule `COc1ccc2c(c1)O[C@@H](C(=O)NC(CO)c1ccccc1)C[C@H]2NC(=O)C1(c2ccc3c(c2)OC(F)(F)O3)CC1` (mixture of isomers) [Example 171, rac-(2R,4R)-4-({[1-(2,2-difluoro-1,3-benzodioxol-5-yl)cyclopropyl]carbonyl}amino)-N-(2-hydroxy-1-phenylethyl)-7-methoxy-3,4-dihydro-2H-chromene-2-carboxamide] returned an EC50 of 2290 nM and a maximal response (Emax) of 40%.

In the case of `COc1ccc2c(c1)O[C@@H](C(=O)NC1CCS(=O)(=O)CC1)C[C@H]2NC(=O)C1(c2ccc3c(c2)OC(F)(F)O3)CC1` (racemic) [Example 172, rac-(2R,4R)-4-({[1-(2,2-difluoro-1,3-benzodioxol-5-yl)cyclopropyl]carbonyl}amino)-N-(1,1-dioxidotetrahydro-2H-thiopyran-4-yl)-7-methoxy-3,4-dihydro-2H-chromene-2-carboxamide], the EC50 is 4080 nM and the Emax was 66%.
